{"source": "patent US20240166690A1", "about": "“MULTI-TARGET CY[…] FOR OPIOID/NEUROPEPTIDE FF RECEPTORS, AND PREPARATION THEREFOR AND APPLICATION THEREOF” (SHANGHAI TIANCI LIFE SCIENCE DEVELOPMENT CO., LTD., priority 2021, published 2024)", "key": {"Mu-opioid receptor": {"target": "T1, Mu-opioid receptor (Homo sapiens, UniProt P35372)", "T1 construct": "expressed in transfected cells; host or cells: HEK293", "T1 sequence (P35372 whole entry)": "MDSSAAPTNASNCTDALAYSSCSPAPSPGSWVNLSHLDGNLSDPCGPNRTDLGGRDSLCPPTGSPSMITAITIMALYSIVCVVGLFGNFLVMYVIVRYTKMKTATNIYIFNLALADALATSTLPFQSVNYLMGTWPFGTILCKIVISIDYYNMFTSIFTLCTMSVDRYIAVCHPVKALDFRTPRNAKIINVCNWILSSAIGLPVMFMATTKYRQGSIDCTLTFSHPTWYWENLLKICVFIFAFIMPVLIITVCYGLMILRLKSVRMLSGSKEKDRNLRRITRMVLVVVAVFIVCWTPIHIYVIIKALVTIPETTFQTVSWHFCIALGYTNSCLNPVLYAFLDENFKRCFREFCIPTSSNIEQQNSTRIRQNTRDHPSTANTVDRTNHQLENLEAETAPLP", "test": "cAMP functional experiment, Mu-opioid receptor (forskolin-induced cAMP accumulation)", "type": "cell-based", "description": "(§1) The agonistic activity of the cyclopeptide molecule of the present invention against Mu-opioid receptor, Delta-opioid receptor, Kappa-opioid receptor, NPFF1 receptor and NPFF2 receptor was evaluated by detecting the regulation of the cyclopeptide molecule of the present invention on the intracellular accumulation of cyclic adenosine monophosphate (cAMP) induced by Forskolin in HEK293 cells stably expressing these five receptors. The experimental method was: the cells were seeded in 24 well plates with 120000 cells per well, and were cultured for more than 20 hours. At the beginning of the experiment, the culture medium in the culture dish was suck out, and then 500 μL of preheated serum-free medium containing 1 mM of IBMX was added, the mixture was incubated at 37° C. for 10 minutes. Then each 10 μL of the drug to be tested and 10 μM of forskolin (final concentration) were added to each well. The mixture was incubated at 37° C. for 30 minutes. After incubation, all the liquid was suck out from the culture dish, 500 μL of 0.2 N hydrochloric acid was added to each well, the mixture was incubated at room temperature for 30 minutes to promote cell lysis. After lysis was complete, NaOH was added to neutralize the hydrochloric acid solution used for lysis. Then all the liquid was suck out from the culture dish into centrifuge tubes, the liquid was centrifuged at 12000 rpm for 2 minutes. 50 μL was taken to a clean centrifuge tube, 100 μL of 60 μg/μL PKA was added, and 100 μL of TE cAMP buffer was added to the blank control group (B). Another 50 μL of 0.5 μ Ci[^3H]cAMP was added to each of the above centrifuge tubes, the mixture was quickly mixed and incubated at 4° C. for more than 2 hours. After incubation, another 100 μL of activated carbon suspension was added to each tube, the mixture was vortex agitated evenly, placed in an ice bath for 1 minute, centrifuged at 5000 rpm for 4 minutes. 200 μL of supernatant after centrifugation in each tube was suck out to a 24 well plate, with an additional 700 μL of scintillator liquid added per well, then the 24 well plate was sealed with adhesive film, placed for 3 hours, then placed on the scintillation instrument for measurement.\n(§2) The inhibitory effect of cAMP was represented by the percentage (% control) of drug inhibition of intracellular cAMP accumulation induced by Forskolin, wherein % control=(cAMP content when treated with Forskolin−cAMP content when Forskolin co-treated with the test drug)/(cAMP content when treated with Forskolin−cAMP content when treated with solvent). The related % control data was represented by mean±S.E.M. The dose-effect relationship of the drug was statistically analyzed using a nonlinear regression model, and the IC50 values of the multi-target cyclopeptide molecule on inhibition of Forskolin induced intracellular cAMP accumulation were calculated using the statistical software GraphPad Prism version 5.0."}, "Kappa-opioid receptor": {"target": "T2, Kappa-opioid receptor (Homo sapiens, UniProt P41145)", "T2 construct": "expressed in transfected cells; host or cells: HEK293", "T2 sequence (P41145 whole entry)": "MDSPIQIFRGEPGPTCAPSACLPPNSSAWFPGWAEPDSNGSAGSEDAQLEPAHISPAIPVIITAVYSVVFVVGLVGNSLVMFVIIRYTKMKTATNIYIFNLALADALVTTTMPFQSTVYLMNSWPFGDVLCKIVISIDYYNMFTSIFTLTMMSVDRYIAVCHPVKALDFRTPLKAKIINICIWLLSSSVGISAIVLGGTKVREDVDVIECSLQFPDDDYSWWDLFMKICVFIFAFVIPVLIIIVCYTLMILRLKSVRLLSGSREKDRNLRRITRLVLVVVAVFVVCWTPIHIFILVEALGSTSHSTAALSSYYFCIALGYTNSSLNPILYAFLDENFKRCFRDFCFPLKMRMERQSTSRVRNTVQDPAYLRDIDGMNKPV", "test": "cAMP functional experiment, Kappa-opioid receptor (forskolin-induced cAMP accumulation)", "type": "cell-based", "description": "as §1, §2"}, "Delta-opioid receptor": {"target": "T3, Delta-opioid receptor (Homo sapiens, UniProt P41143)", "T3 construct": "expressed in transfected cells; host or cells: HEK293", "T3 sequence (P41143 whole entry)": "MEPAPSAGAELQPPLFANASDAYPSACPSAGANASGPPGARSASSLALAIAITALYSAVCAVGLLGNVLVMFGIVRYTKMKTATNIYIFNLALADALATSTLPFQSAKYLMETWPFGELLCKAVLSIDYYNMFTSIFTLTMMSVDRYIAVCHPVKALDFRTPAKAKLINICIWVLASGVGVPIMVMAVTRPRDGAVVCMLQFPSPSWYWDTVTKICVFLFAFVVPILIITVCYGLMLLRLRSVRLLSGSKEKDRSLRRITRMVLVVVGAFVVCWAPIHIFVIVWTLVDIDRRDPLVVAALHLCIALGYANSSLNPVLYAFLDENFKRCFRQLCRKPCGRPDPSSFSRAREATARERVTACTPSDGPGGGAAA", "test": "cAMP functional experiment, Delta-opioid receptor (forskolin-induced cAMP accumulation)", "type": "cell-based", "description": "as §1, §2"}, "NPFF1 receptor": {"target": "T4, NPFF1 receptor (Homo sapiens, UniProt Q9GZQ6)", "T4 construct": "expressed in transfected cells; host or cells: HEK293", "T4 sequence (Q9GZQ6 whole entry)": "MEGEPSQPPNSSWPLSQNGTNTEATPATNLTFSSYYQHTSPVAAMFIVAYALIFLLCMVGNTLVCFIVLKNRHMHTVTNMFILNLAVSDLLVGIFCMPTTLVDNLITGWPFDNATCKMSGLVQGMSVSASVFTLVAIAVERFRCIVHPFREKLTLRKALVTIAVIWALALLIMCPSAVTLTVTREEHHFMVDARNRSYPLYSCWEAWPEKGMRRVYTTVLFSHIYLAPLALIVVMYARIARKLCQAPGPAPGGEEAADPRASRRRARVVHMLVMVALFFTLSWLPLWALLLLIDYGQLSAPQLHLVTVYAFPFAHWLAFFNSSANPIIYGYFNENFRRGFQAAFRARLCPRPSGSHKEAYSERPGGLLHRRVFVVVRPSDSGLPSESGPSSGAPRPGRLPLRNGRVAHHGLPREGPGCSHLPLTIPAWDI", "test": "cAMP functional experiment, NPFF1 receptor (forskolin-induced cAMP accumulation)", "type": "cell-based", "description": "as §1, §2"}, "NPFF2 receptor": {"target": "T5, NPFF2 receptor (Homo sapiens, UniProt Q9Y5X5)", "T5 construct": "expressed in transfected cells; host or cells: HEK293", "T5 sequence (Q9Y5X5 whole entry)": "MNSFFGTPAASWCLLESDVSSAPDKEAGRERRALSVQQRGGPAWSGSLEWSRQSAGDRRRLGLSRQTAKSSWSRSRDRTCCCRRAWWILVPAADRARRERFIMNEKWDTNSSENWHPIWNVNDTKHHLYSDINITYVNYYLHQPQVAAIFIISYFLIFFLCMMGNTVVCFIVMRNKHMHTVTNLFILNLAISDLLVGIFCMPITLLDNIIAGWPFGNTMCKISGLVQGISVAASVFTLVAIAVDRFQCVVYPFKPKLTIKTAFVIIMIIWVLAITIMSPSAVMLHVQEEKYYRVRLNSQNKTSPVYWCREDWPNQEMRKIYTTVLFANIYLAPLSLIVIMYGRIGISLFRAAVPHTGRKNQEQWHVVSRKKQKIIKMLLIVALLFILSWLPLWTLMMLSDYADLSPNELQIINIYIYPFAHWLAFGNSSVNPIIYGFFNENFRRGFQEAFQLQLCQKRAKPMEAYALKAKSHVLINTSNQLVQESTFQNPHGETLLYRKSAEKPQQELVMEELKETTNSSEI", "test": "cAMP functional experiment, NPFF2 receptor (forskolin-induced cAMP accumulation)", "type": "cell-based", "description": "as §1, §2"}, "Kunming male mice [1]": {"tested_on": "Kunming male mice", "test": "Photothermal tail flick experiment, subcutaneous injection", "type": "in vivo", "conditions": "photothermal tail flick", "description": "(§3) Two administration methods were used: peripheral subcutaneous administration and oral administration. Subsequently, the analgesic activity of the drug was studied using an acute pain model of photothermal tail flick in mice.\nSubcutaneous administration on the back was chosen for subcutaneous administration (s.c.). A sterile 1 mL syringe was used and the drug with the volume of 0.1 mL/10 g was injected for administration. The back skin was grasped with the right hand, the needle was tilted in, and the drug was injected subcutaneously into the mouse's back. After the needle was inserted, shook it left and right, and observe to confirm that the needle had indeed entered the subcutaneous area to prevent the needle from puncturing the skin and leaking the drug.\n(§4) The photothermal tail flick experiment is based on the experimental method summarized by D'Amour and Smith to optimize the experimental parameters. The experiment selected Kunming male mice with body weigh 21±2 g, and ambient temperature controlled at 22±2° C. The experimental mice were allowed to drink water freely and were moved from the breeding room to the experimental area for adaptation for 30 minutes before starting the experiment. Then the mice were grab with the right hand and the tail hang freely. Then the mice's tail were placed on a radiation light source, 2-3 mm away from the mice tail. The intensity of radiation heat was adjusted to the tail flick time of mice being 3-5 s, which is the basic pain threshold of photothermal tail flick. The irradiation time of the mice tail should not exceed 10 s to prevent scalding of the mice tail, which was the maximum latency for photothermal tail flick. After administration, time points of 10, 20, 30, 45, 60, 90, 120, 180, 240, 300, 360, and 420 minutes were selected to measure the tail flick latency of mice after administration.\n(§5) The analgesic effect of drugs was generally evaluated using the maximum analgesic effect MPE (%), MPE (%)=100×[(pain threshold after administration−basic pain threshold)/(10 seconds−basic pain threshold)]. 50% effective dose (ED50) refers to the corresponding drug dose that causes a 50% effect. ED50 and 95% confidence interval were calculated using MPE (%) and the drug concentration that achieves the maximum analgesic effect MPE (%) by the statistical software GraphPad Prism 5.0. The difference in analgesic effects was statistically analyzed using one-way ANOVA (Dunnett test), *P<0.05, **P<0.01, and ***P<0.001 indicated significance of the difference between the group with only drug injected and the saline group."}, "Kunming male mice [2]": {"tested_on": "Kunming male mice", "test": "Photothermal tail flick experiment, oral administration", "type": "in vivo", "conditions": "tail flick", "description": "as §3\n1 mL sterile syringe was used for oral administration (p.o.), the pinhead was replaced with a mouse gastric lavage needle, and […] of the drug was orally administered. The skin on the neck and back of the mouse was grasped with the left hand with the abdomen facing upwards. Noted that the mouse's entire body was fixed to vertical, which was beneficial for oral gavage. A gastric lavage needle (No. 12 needle and 1 mL syringe) was held in the right hand and was inserted to the esophagus along the upper jaw which is pressed the tongue tightly from the corner of the mouse's mouth. Gastric lavage fluid can be injected when the needle inserted 2.5 cm. The inserting length of the needle should be determined through practice in advance, as there is a sense of falling into a hole after the needle is inserted. If the injection position was appropriate, it should be very smooth. […] This can cause immediate death of the mouse after gavage.\nas §4, §5"}, "[3]": {"conditions": "morphine, reference method; cited from earlier work"}}, "note": "pIC50: −log10 of the molar value. Bridge positions count the residues as written; N and C are the ends. Square brackets hold non-standard residues; d marks the D form. Peptide text beside a SMILES is read from it. NMeF = CN[C@@H](Cc1ccccc1)C(=O)O; Cha = N[C@@H](CC1CCCCC1)C(=O)O; dDap = NC[C@@H](N)C(=O)O; Aib = CC(C)(N)C(=O)O; βAla = NCCC(=O)O"}
{"smiles": "CN1C(=O)CNC(=O)[C@H](NC(=O)[C@@H](N)Cc2ccc(O)cc2)CCC(=O)NCCCC[C@@H](C(=O)N2CCC[C@H]2C(=O)N[C@@H](CCC(N)=O)C(=O)N[C@@H](CCCNC(=N)N)C(=O)N[C@@H](Cc2ccccc2)C(N)=O)NC(=O)[C@@H]1Cc1ccccc1", "note": "[Compound 7, Tyr-c^[2,5][D-Glu-Gly-NMe-Phe-Lys]-Pro-Gln-Arg-Phe-NH2] (H-Y[dE]G[NMeF]KPQRF-NH2; lactam 2-5)", "values": [{"measurement": "melting point", "value": "182 to 184", "unit": "°C"}]}
{"smiles": "CN1C(=O)CNC(=O)[C@H](NC(=O)[C@@H](N)Cc2ccc(O)cc2)CNC(=O)C[C@@H](C(=O)N2CCC[C@H]2C(=O)N[C@@H](CCC(N)=O)C(=O)N[C@@H](CCCNC(=N)N)C(=O)N[C@@H](Cc2ccccc2)C(N)=O)NC(=O)[C@@H]1Cc1ccccc1", "note": "[Compound 10, Tyr-c^[2,5][D-Dap-Gly-NMe-Phe-Asp]-Pro-Gln-Arg-Phe-NH2] (H-Y[dDap]G[NMeF]DPQRF-NH2; lactam 2-5)", "values": [{"measurement": "pIC50", "setting": "Mu-opioid receptor", "value": 6.62}, {"measurement": "pIC50", "setting": "Kappa-opioid receptor", "value": 6.87}, {"measurement": "pIC50", "setting": "Delta-opioid receptor", "value": 6.43}, {"measurement": "pIC50", "setting": "NPFF1 receptor", "value": 7.05}, {"measurement": "pIC50", "setting": "NPFF2 receptor", "value": 6.46}, {"measurement": "ED50 value (95% confidence interval), analgesic activity", "setting": "Kunming male mice [1]", "value": "15.0 (13.6 to 16.5) μg/kg"}, {"measurement": "Maximum analgesic time", "setting": "Kunming male mice [2]; oral administration at the maximum analgesic dose", "value": 30, "unit": "min"}, {"measurement": "analgesic duration", "setting": "Kunming male mice [2]; oral administration", "value": 240, "unit": "min"}]}
{"smiles": "CN1C(=O)CNC(=O)[C@H](NC(=O)[C@@H](N)Cc2ccc(O)cc2)CCCCNC(=O)C[C@@H](C(=O)N2CCC[C@H]2C(=O)NCCC(=O)N[C@@H](CCCNC(=N)N)C(=O)N[C@@H](CC2CCCCC2)C(N)=O)NC(=O)[C@@H]1Cc1ccccc1", "note": "[Compound 13, Tyr-c[D-Lys-Gly-NMe-Phe-Asp]-Pro-β-Ala-Arg-Cha-NH2] (H-Y[dK]G[NMeF]DP[βAla]R[Cha]-NH2; lactam 2-5)", "values": [{"measurement": "melting point", "value": "175 to 177", "unit": "°C"}]}
{"smiles": "CN1C(=O)CNC(=O)[C@H](NC(=O)[C@@H](N)Cc2ccc(O)cc2)CCCCNC(=O)C[C@@H](C(=O)N2CCC[C@H]2C(=O)NC(C)(C)C(=O)N[C@@H](CCCNC(=N)N)C(=O)N[C@@H](CC2CCCCC2)C(N)=O)NC(=O)[C@@H]1Cc1ccccc1", "note": "[Compound 14, Tyr-c^[2,5][D-Lys-Gly-NMe-Phe-Asp]-Pro-Aib-Arg-Cha-NH2] (H-Y[dK]G[NMeF]DP[Aib]R[Cha]-NH2; lactam 2-5)", "values": [{"measurement": "melting point", "value": "196 to 198", "unit": "°C"}]}
{"smiles": "CN1CC[C@]23c4c5ccc(O)c4O[C@H]2[C@@H](O)C=C[C@H]3[C@H]1C5", "note": "[morphine]", "values": [{"measurement": "analgesic ED50", "setting": "[3]", "value": 1.68, "unit": "mg/kg"}]}
